Where a SMILES comes first, the peptide text is derived from it. [ ]: non-standard residue; d: D form. NMeF = CN[C@@H](Cc1ccccc1)C(=O)O; dNMeF = CN[C@H](Cc1ccccc1)C(=O)O; NMeL = CN[C@@H](CC(C)C)C(=O)O; dNMeL = CN[C@H](CC(C)C)C(=O)O; dNMeV = CN[C@@H](C(=O)O)C(C)C; NMeV = CN[C@H](C(=O)O)C(C)C; Nle = CCCC[C@H](N)C(=O)O; dNMeA = CN[C@H](C)C(=O)O
Settings: for PAMPA_Papp_Avg / PAMPA_R1 / PAMPA_R3: PAMPA

## CC[C@H](C)[C@@H]1NC(=O)[C@H](C)NC(=O)[C@@H](CC(C)C)NC(=O)[C@H](CC(C)C)N(C)C(=O)[C@H](CC(C)C)NC(=O)[C@@H](Cc2ccccc2)N(C)C(=O)[C@@H]2CCCN2C(=O)[C@H]([C@@H](C)CC)NC(=O)[C@H](Cc2ccccc2)N(C)C(=O)[C@@H](CC(C)C)NC1=O [Design D10.55, DLEU ALA ILE DLEU *PHE ILE PRO *DPHE LEU *LEU] (cyclo(AI[dL][NMeF]IP[dNMeF]L[NMeL][dL]))
  PAMPA_Papp_Avg: BQL
  PAMPA_R1: BQL
  PAMPA_R3: BQL

## CC(C)[C@@H]1NC(=O)[C@H](C)NC(=O)[C@H]2CCCN2C(=O)[C@@H](Cc2ccccc2)NC(=O)[C@H]2CCCN2C(=O)[C@@H]2CCCN2C(=O)[C@H](Cc2ccccc2)NC(=O)[C@H](C)NC(=O)[C@H]2CCCN2C1=O [Design D9.36, VAL DPRO ALA PHE PRO DPRO DPHE DPRO ALA] (cyclo(AFP[dP][dF][dP]AV[dP]))
  PAMPA_Papp_Avg: BQL
  PAMPA_R1: BQL
  PAMPA_R3: BQL

## PRO DPRO DALA DPHE DLEU ILE DPHE *DALA LEU PRO NLE [Design D11.14.p2]
  PAMPA_Papp_Avg: BQL
  PAMPA_R1: BQL
  PAMPA_R3: BQL

## CCCC[C@@H]1NC(=O)[C@H]2CCCN2C(=O)[C@H](C(C)C)NC(=O)[C@@H](CC(C)C)N(C)C(=O)[C@H](Cc2ccccc2)NC(=O)[C@H](CC(C)C)NC(=O)[C@@H](CC(C)C)N(C)C(=O)[C@@H]2CCCN2C(=O)[C@@H](CC(C)C)NC1=O [Design D9.40, DPRO MET DLEU PRO *DLEU LEU PHE *DLEU VAL] (cyclo(F[dNMeL]V[dP][Nle][dL]P[dNMeL]L))
  PAMPA_Papp_Avg: 2.38E-07
  PAMPA_R1: 4.18E-07
  PAMPA_R3: 1.63E-07

## CC[C@@H](C)[C@H]1NC(=O)[C@@H]2CCCN2C(=O)[C@H](CC(C)C)NC(=O)[C@@H](CC(C)C)NC(=O)[C@@H](Cc2ccccc2)NC(=O)[C@@H](Cc2ccccc2)NC(=O)[C@@H](C)NC(=O)[C@H]2CCCN2C(=O)[C@@H]2CCCN2C(=O)[C@@H](C(C)C)NC(=O)[C@@H]2CCCN2C(=O)[C@H]2CCCN2C1=O [Design D12.9, DILE DPRO PRO DVAL PRO DPRO DALA DPHE DPHE DLEU LEU PRO] (cyclo([dV]P[dP][dA][dF][dF][dL]LP[dI][dP]P))
  PAMPA_Papp_Avg: BQL
  PAMPA_R1: BQL
  PAMPA_R3: BQL

## CC[C@@H](C)[C@H]1NC(=O)[C@@H](CC(C)C)N(C)C(=O)[C@@H]2CCCN2C(=O)[C@H]([C@@H](C)CC)NC(=O)[C@H]([C@@H](C)CC)N(C)C(=O)[C@@H](CC(C)C)NC(=O)[C@@H](C(C)C)N(C)C(=O)[C@H]2CCCN2C(=O)[C@@H](C(C)C)NC(=O)[C@@H]2CCCN2C(=O)[C@H]([C@@H](C)CC)NC1=O (single isomer, unassigned) [Design D11.23.p2, DVAL DPRO *DVAL DLEU *ILE ILE PRO *DLEU DILE ILE PRO]
  PAMPA_Papp_Avg: 9.83E-07
  PAMPA_R1: 1.49E-06
  PAMPA_R3: 4.80E-07

## CC[C@H](C)[C@@H]1NC(=O)[C@@H]2CCCN2C(=O)[C@H]2CCCN2C(=O)[C@@H](CC(C)C)NC(=O)[C@@H](CC(C)C)N(C)C(=O)[C@@H]2CCCN2C(=O)[C@H](Cc2ccccc2)N(C)C(=O)[C@@H](Cc2ccc(O)cc2)NC1=O [Design D8.13, PRO ILE DTYR *PHE PRO *DLEU DLEU DPRO] (cyclo(I[dY][NMeF]P[dNMeL][dL][dP]P))
  PAMPA_Papp_Avg: BQL
  PAMPA_R1: BQL
  PAMPA_R3: BQL

## CC(C)C[C@@H]1NC(=O)[C@H](C)NC(=O)[C@H](C)NC(=O)[C@H]2CCCN2C(=O)[C@H](Cc2ccccc2)N(C)C(=O)[C@H]2CCCN2C(=O)[C@H](CC(C)C)N(C)C(=O)[C@@H](CC(C)C)N(C)C(=O)[C@H](Cc2ccccc2)NC(=O)[C@@H](CC(C)C)NC1=O [Design D10.8, PHE *DLEU *LEU DPRO *PHE DPRO ALA ALA LEU DLEU] (cyclo(AAL[dL]F[dNMeL][NMeL][dP][NMeF][dP]))
  PAMPA_Papp_Avg: BQL
  PAMPA_R1: BQL
  PAMPA_R3: BQL

## PRO DPRO DPHE *DLEU *DPHE DLEU ILE PRO *DLEU LEU [Design D10.15]
  PAMPA_Papp_Avg: BQL
  PAMPA_R1: BQL
  PAMPA_R3: BQL

## CC(C)C[C@@H]1NC(=O)[C@@H]2CCCN2C(=O)[C@H]2CCCN2C(=O)[C@@H](CC(C)C)N(C)C(=O)[C@@H](Cc2ccccc2)N(C)C(=O)[C@@H](CC(C)C)NC(=O)[C@@H](CC(C)C)N(C)C(=O)[C@@H]2CCCN2C(=O)[C@H](CC(C)C)N(C)C(=O)[C@H](CC(C)C)N(C)C1=O [Design D10.23, PRO LEU *LEU *LEU PRO *DLEU DLEU *DPHE *DLEU DPRO] (cyclo(L[NMeL][NMeL]P[dNMeL][dL][dNMeF][dNMeL][dP]P))
Caco-2
  permeability in transwell assays: not permeable
  PAMPA_Papp_Avg: BQL
  PAMPA_R1: BQL
  PAMPA_R3: BQL

## CC[C@H](C)[C@@H]1NC(=O)[C@H]2CCCN2C(=O)[C@H](C(C)C)NC(=O)[C@H](C(C)C)N(C)C(=O)[C@@H](C(C)C)NC(=O)[C@H](C(C)C)NC(=O)[C@H]2CCCN2C(=O)[C@@H]2CCCN2C(=O)[C@H](C)NC(=O)[C@@H](CC(C)C)N(C)C(=O)[C@H]2CCCN2C1=O [Design D11.8, PRO DPRO VAL DVAL *VAL VAL DPRO ILE DPRO *DLEU ALA] (cyclo(AP[dP]V[dV][NMeV]V[dP]I[dP][dNMeL]))
  PAMPA_Papp_Avg: BQL
  PAMPA_R1: BQL
  PAMPA_R3: BQL

## CC[C@@H](C)[C@H]1NC(=O)[C@H](C(C)C)NC(=O)[C@H](Cc2ccccc2)NC(=O)[C@H](C)NC(=O)[C@@H]2CCCN2C(=O)[C@H]2CCCN2C(=O)[C@H]2CCCN2C(=O)[C@H](CC(C)C)N(C)C(=O)[C@@H](C)N(C)C(=O)[C@H](C(C)C)NC1=O [Design D10.38, VAL *DALA *LEU DPRO DPRO PRO ALA PHE VAL DILE] (cyclo(AFV[dI]V[dNMeA][NMeL][dP][dP]P))
  PAMPA_Papp_Avg: BQL
  PAMPA_R1: BQL
  PAMPA_R3: BQL

## CC[C@H](C)[C@@H]1NC(=O)[C@@H](CC(C)C)NC(=O)[C@H]2CCCN2C(=O)[C@@H]2CCCN2C(=O)[C@H](C)NC(=O)[C@H]2CCCN2C(=O)[C@@H]2CCCN2C(=O)[C@H](C)NC(=O)[C@@H](C(C)C)N(C)C1=O [Design D9.37, DPRO DLEU ILE *DVAL ALA PRO DPRO ALA PRO] (cyclo(AP[dP]AP[dP][dL]I[dNMeV]))
  PAMPA_Papp_Avg: BQL
  PAMPA_R1: BQL
  PAMPA_R3: BQL

## CC[C@H](C)[C@@H]1NC(=O)[C@H](Cc2ccccc2)NC(=O)[C@H]2CCCN2C(=O)[C@H]([C@@H](C)CC)NC(=O)[C@H](C(C)C)NC(=O)[C@@H](C)NC(=O)[C@H]2CCCN2C1=O (single isomer, unassigned) [Design D7.8.p2, VAL ILE DPRO PHE ILE DPRO DALA]
  PAMPA_Papp_Avg: 4.92e-06 cm/s
  PAMPA_R1: 4.52e-06 cm/s
  PAMPA_R3: 5.64e-06 cm/s

## CCCC[C@@H]1NC(=O)[C@@H]2CCCN2C(=O)[C@@H](C(C)C)NC(=O)[C@@H](C)N(C)C(=O)[C@@H](CC(C)C)NC(=O)[C@@H](CC(C)C)NC(=O)[C@@H]2CCCN2C(=O)[C@H]2CCCN2C1=O [Design D8.29, MET DPRO PRO DLEU DLEU *DALA DVAL PRO] (cyclo([dL][dL][dNMeA][dV]P[Nle][dP]P))
  PAMPA_Papp_Avg: 3.60E-07
  PAMPA_R1: 3.98E-07
  PAMPA_R3: 3.61E-07
